Common to all, as to assay type: cell-based, human
The test system of assay [1] is γ-globin promoter activity in KU812-γF/βR stable lines. Put plainly: KU812 dual-luciferase reporter stable lines (μLCRβprRluc AγprFluc), γ-globin promoter activity. The note with it: 48 hr; for Fold change (γ/γ + 2β): untreated normalized to one. The text has this: KU812 stable cell lines were created by co-transfecting wild-type KU812 cells with pEGFP-NI (G418 selectable marker) and theμLCRβ prRluc ^A γ prFluc dual-reporter a kind gifts from Dr. George Stamatoyannopoulos (University of Washington). […] Likewise, 1.4 kb of human Aγ-globin promoter was inserted upstream of firefly luciferase to create ^A γ prFluc. The μLCR (locus control region), Pβ prRluc, and ^A γ prFluc fragments were subsequently cloned into the mammalian vector, pRL-null.
After 72 hr, G418 was added at a concentration of […] for 3 days then maintained under selection pressure indefinitely at a concentration of […]. KU812 stable lines were treated with the various drugs at the same concentrations described above. FK228 and analogues were screened at concentrations between 1–1000 nM for 48 hr and cell toxicity was monitored by 2% Trypan blue exclusion. The effect of drug treatments on γ-globin and β-globin promoter activity was monitored by luciferase assay.
Luciferase activity was monitored under the different experimental conditions using the Dual Luciferase Assay Reporter System (Promega, Madison, WI). The activity of firefly luciferase represents γ-globin promoter activity (γF), while the renilla luciferase is the read-out for β-globin promoter activity (βR). The β-globin promoter was strategically cloned between the LCR and γ-globin promoter to increase β expression, while simultaneously increasing the sensitivity of detection of γ-globin gene inducers.
After drug treatments, KU812 stable cells were washed with 1X phosphate buffered saline and lysed in 1X Passive Lysis Buffer for 15 min, then protein extracts were added to the Luciferase Assay Reagent II and firefly luciferase activity quantified in a Turner Designs TD-20/20 luminometer (Sunnyvale, CA). To measure βR activity, Stop & Glo Reagents was added to measure the renilla luciferase activity. Total protein was determined by Bradford assay on a Beckman DU 640 spectrophotometer (Chaska, MN) and luciferase activity was corrected for total protein.
Subsequently, three independent dual-luciferase reporter KU812 stable cell lines were established to analyze the ability FK228 analogues to induce γ-globin promoter activity without an effect on β-globin transcription. […] Since the firefly luciferase gene (γF) has approximately […] luminescence than the renilla gene (βR), the renilla activity was multiplied by two to adjust for the difference in luminescence yielding the γ/γ+2β final measurement. The FK228 analogues were examined at concentrations ranging from 1–1000 nM in the three stable lines. After 48-hour treatments, cells were harvested and protein isolated for luciferase activity using the Dual Luciferase Reporter Assay.

In assay [2] the test system is HbF levels in primary erythroid cells. Put plainly: HbF ELISA in primary erythroid cells. The protocol:
The two-phase liquid culture system was established as previously published by Fibach et al. using buffy coat mononuclear cells, purchased from Carter Blood Care (Fort Worth, TX) in accordance with the guidelines of the Institutional Review Board at the University of Texas at Dallas. During phase 1, cells were grown in IMDM medium with 30% fetal bovine serum and 50 ng/mL each of the granulocyte-monocyte colony-stimulating factor, Interleukin-3, and stem cell factor. Subsequently, phase 2 was initiated on day 7 with the addition of erythropoietin (2 U/mL) and stem cell factor (50 ng/mL). The cells were treated on Day 11 with the different test compounds and harvested on Day 14 (72 hr incubation).
Total hemoglobin was quantified using 20 μL of protein extract from one million KU812 cells mixed with 5 mL of Drabkin's reagent (Sigma); then cyanmethemoglobin was measured at the 540 nm wavelength. HbF levels were quantified using the human Hemoglobin F ELISA Quantitation Kit (Bethyl Laboratory, Montgomery, TX). Briefly, 96-well plates were coated with sheep anti-human HbF antibody (1 mg/mL). After blocking with 1% bovine serum albumin, horse radish peroxidase-conjugated secondary antibody (1 mg/mL) was added. Raw data were analyzed using GraphPad PRISM (GraphPad Software, Inc., La Jolla, CA) and HbF levels were calculated as a ratio of total hemoglobin corrected for total protein (HbF/total Hb/total protein).

The test system of assay [3] is γ-globin gene transcription in KU812 cells. Put plainly: RT-qPCR of γ/β-globin mRNA in wild type KU812 cells. The settings on record: 48 hr, Hem 50 μM, NaB 2 mM, SAHA 2 μM, FK228 1.5 nM, Cys 10 mM, untreated normalized to one, range over the drugs. The protocol:
Human KU812 leukemia cells were grown in Iscove's Modified Dulbecco's medium (IMDM) (Invitrogen, Carlsbad, CA) with 10% fetal bovine serum (Atlanta Biologicals, Atlanta, GA), penicillin (100 U/mL), and streptomycin (0.1 mg/mL). The cells were incubated at 37°C with 5% CO2. Cell count and viability were determined using a hemocytometer and 2% Trypan blue exclusion. Inductions were performed with one million cells treated for 48 hr with the following drugs purchased from Sigma (St Louis, MO): 50 μM Hem (hemin), 2 mM NaB (sodium buytrate), 0.5 μM TSA, 10 mM Cys (cysteine), 1.5 nM FK228, and 100 μM HU (hydroxyurea). […] Inc. (Whitehouse Station, NJ).
Total RNA was isolated from samples using RNA Stat-60 (TEL-TEST “B” Inc., Friendswood, TX) and used for RT-qPCR analysis as previously published. […] The globin mRNA levels were calculated as a ratio of GAPDH (γ/GAPDH, β/GAPDH), and the γ/β-globin mRNA ratio was calculated by dividing γ/GAPDH by β/GAPDH. […]
Figure 2 Known HbF inducers activate γ-globin expression in KU812 cells. […] Cells were treated for 48 hr with the different drug inducers and γ-globin and β-globin gene transcription were measured by RT-qPCR (see Section 2). […] Data were calculated as the means ± standard error of the mean (SEM); *P < 0.05 and **P < 0.01. […]

SMILES strings stand for the structures.

In the case of `N[C@@H](CS)C(=O)O` [Cys, cysteine], the “γ/γ + 2β Mean” value in assay [1] (Line 1, firefly (γ) / renilla (β) luciferase corrected for total protein, mean, conc: Cys 10 mM, Hemin 50 μM, SAHA 2000 nM, FK228 1.5 nM, 1127Ox 1000 nM, JMA1 1.5 nM, JMA2 1.0 nM, JMA12 1000 nM, JMA26 500 nM, JMA33 1000 nM, JMA112 100 nM, untreated 0.0402) is 0.0388; in assay [1] (Line 2, concentrations as in E1, untreated 0.1573) it was 0.1200; in assay [1] (Line 3, concentrations as in E1, untreated 0.0721) it was 0.0860. For the same molecule, the “Fold change (γ/γ + 2β)” value in assay [1] (Line 1, concentrations as in E1) amounted to 0.950; in assay [1] (Line 2, concentrations as in E1), 0.764; in assay [1] (Line 3, concentrations as in E1), 1.194. Besides, the “Fold change in HbF levels” value in assay [2] (relative to untreated = 1, concentrations as in E7) is given as 1.079 fold. In addition, the “Fetal hemoglobin quantification, Mean (HbF/total Hb/total protein)” value in assay [2] (treated Day 11, harvested Day 14, conc: Cys 10 mM, Hemin 50 μM, SAHA 2000 nM, FK228 1.5 nM, JMA1 1.5 nM, JMA2 1.0 nM, JMA26 500 nM, JMA33 1000 nM, untreated 0.683) is listed as 0.737. Also, in assay [3], the “increase in the γ/β-globin mRNA levels” value is reported as “not induced”.
